Test results published in patent publication US3947411A, “Novel 1-aryl-2-arylalkyl-3-or-4-[4'-(substituted-alkyl)piperazino-1']butanols- 2-or-butenes-1, and methods of manufacture thereof” (Warner-Lambert Company, priority 1972, dated 1976).
In brackets after ≈: the same amount, converted by molar mass.

What was measured:
A. niger [1] = test: Minimum inhibitory concentration for fungi in presence of serum, A. niger (Table VI); assay type: cell-based; conditions: Aspergillus niger; Sabouraud nutrient broth + 10% bovine serum, 28°C, 48 hours
Candida albicans = test: Agar well inhibition zone test against fungi, Candida albicans (Table II); conditions: quantity per well giving inhibition zone (500, 50, 5 μg tested); Sabouraud agar, 28°, 48 hours
C. albicans [2] = test: Minimum inhibitory concentration for fungi in presence of serum, C. albicans (Table VI); assay type: cell-based; conditions: Candida albicans; Sabouraud nutrient broth + 10% bovine serum, 28°C, 48 hours
C. albicans [3] = test: Minimum inhibitory concentration for fungi, tube dilution, C. albicans (Table IV); conditions: Candida albicans, 48 h, read-out: Minimum Inhibitory Concentration, C. albicans
Experimental: (§1) A tube dilution series of the respective compound in Sabouraud nutrient broth, whose individual tubes contained concentrations of 1024 μg, 512 μg, 256 μg, 128 μg, 64 μg, 32 μg, 16 μg, 8 μg, 4 μg, 2 μg, 1.1 μg and 0.5 μg/ml, was prepared and inoculated with a photometrically standardized suspension of the test organisms or the spores thereof.

A. niger [4] = test: Minimum inhibitory concentration for fungi, tube dilution, A. niger (Table IV); conditions: Aspergillus niger, 48 h, read-out: Minimum Inhibitory Concentration, A. niger
Experimental: as §1

Aspergillus niger = test: Agar well inhibition zone test against fungi, Aspergillus niger (Table II); conditions: quantity per well giving inhibition zone (500, 50, 5 μg tested); Sabouraud agar, 28°, 48 hours
Experimental: The efficacy of the compounds against fungi was tested as follows:
The test organisms, in this case the blastomycete Candida albicans and the mold Aspergillus niger, were inoculated onto Sabouraud agar plates by pouring a photometrically adjusted standard suspension of organisms on the plate. After inoculation, wells with a diameter of 5.0 mm were punched in the agar, and filled with 50 ul of the compound solution mentioned before. The quantity of compound applied thus amounted to 500 μg, 50 μg and 5 μg. After incubation at 28° for 48 hours, the quantity of compound was determined at which an inhibition of the organism's growth, in form of an inhibition zone around the corresponding well, was present.

Solubility in water = assay type: physicochemical; conditions: hydrochlorides or oxalates, read-out: solubilities (in water)
Outline: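 Water solubility given for the hydrochloride salts of most compounds and for the oxalate salts of a few.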

Staph. aureus = test: Minimum inhibitory concentration for bacteria, tube dilution, Staph. aureus (Table V); conditions: Staphylococcus aureus, 48 h, read-out: Minimum Inhibitory Concentration, Staph. aureus
Experimental: A tube dilution series of the respective compound in nutrient broth whose individual tubes contained concentrations of 1024 μg, 512 μg, 256 μg, 128 μg, 64 μg, 32 μg, 1 μg, 8 μg, 4 μg, 2 μg, 1.1 μg and 0.5 μg/ml was prepared and inoculated with a photometrically standardized suspension of the test organisms.

Staphylococcus aureus = test: Agar well inhibition zone test against bacteria, Staphylococcus aureus (Table III); conditions: quantity per well giving inhibition zone (500, 50, 5 μg tested); nutrient agar, 37°, 24 hours
Escherichia coli = test: Agar well inhibition zone test against bacteria, Escherichia coli (Table III); conditions: quantity per well giving inhibition zone (500, 50, 5 μg tested); nutrient agar, 37°, 24 hours
E. coli [5] = test: Minimum inhibitory concentration for bacteria, tube dilution, E. coli (Table V); assay type: cell-based; conditions: Escherichia coli, 48 h, read-out: Minimum Inhibitory Concentration, E. coli
E. coli [6] = test: Minimum inhibitory concentration for bacteria in presence of serum, E. coli (Table VII); assay type: cell-based; conditions: Escherichia coli; nutrient broth + 10% serum, 37°C, 48 hours

Structure (SMILES) | MIC (A. niger [1]) | Inhibition Area at μg, Cand. albicans (Candida albicans) | MIC (C. albicans [2]) | MIC (C. albicans [3]) | MIC (A. niger [4]) | Inhibition Area at μg, Asp. niger (Aspergillus niger) | solubility (Solubility in water) | MIC (Staph. aureus) | Inhibition Area at μg, Staph. aureus (Staphylococcus aureus) | Inhibition Area at μg, E. coli (Escherichia coli) | MIC (E. coli [5]) | MIC (E. coli [6])
Clc1ccc(C=C(CCN2CCN(CCN3CCCCC3)CC2)Cc2ccc(Cl)cc2)cc1 [LXIII, 1-(p-chloro-phenyl)-2-(p-chlorobenzyl)-4-[4'-(β-piperidino-ethyl)-piperazino-1']-butene-1] | 32 µg/mL | 5 µg | 128 µg/mL | 32 µg/mL (≈ 65.8 µM) | < 0.5 µg/mL | 50 µg | < 10 mg/mL | 8 µg/mL (≈ 16.4 µM) | 5 µg | 5 µg | 64 µg/mL (≈ 132 µM) | –
CC(C(=Cc1ccccc1Cl)Cc1ccccc1Cl)N1CCN(CCN2CCN(C)CC2)CC1 (stereo not shown) [LXVI] | 128 µg/mL | 5 µg | 1020 µg/mL | 4 µg/mL (≈ 7.98 µM) | < 0.5 µg/mL | 5 µg | 100 mg/mL (≈ 199000 µM) | 32 µg/mL (≈ 63.8 µM) | 5 µg | 50 µg | 128 µg/mL (≈ 255 µM) | –
CCCCCCCC[N+](C)(C)CCN1CCN(C(C)C(=Cc2ccccc2)Cc2ccccc2)CC1 (stereo not drawn) [XLIII, Dimethyl-n-octyl-β-[4-(1'-phenyl-2'-benzylbutene-1'-yl-3')-piperazino-1]-ethyl-ammoniumbromide] | 64 µg/mL | 5 µg | 128 µg/mL | < 0.5 µg/mL | < 0.5 µg/mL | 5 µg | < 10 mg/mL | < 0.5 µg/mL | 5 µg | 5 µg | 1 µg/mL | 128 µg/mL
C(=C(CCN1CCN(CCN2CCCCC2)CC1)Cc1ccccc1)c1ccccc1 [LXIV] | 8 µg/mL | 50 µg | 128 µg/mL | 8 µg/mL (≈ 19.2 µM) | 8 µg/mL (≈ 19.2 µM) | 5 µg | 100 mg/mL (≈ 239000 µM) | 8 µg/mL (≈ 19.2 µM) | 5 µg | 5 µg | 256 µg/mL (≈ 613 µM) | –
CC(C(=Cc1ccccc1)Cc1ccccc1)N1CCN(CCN2CCN(CCc3ccccc3)CC2)CC1 (stereo not drawn) [XXXIX, 1-phenyl-2-benzyl-3-{4'-[β-(4"-β-phenethylpiperazino-1")-ethyl]-piperazino-1'}-butene-1] | 128 µg/mL | 5 µg | 64 µg/mL | 4 µg/mL (≈ 7.65 µM) | 32 µg/mL (≈ 61.2 µM) | 5 µg | 50 mg/mL (≈ 95600 µM) | 32 µg/mL (≈ 61.2 µM) | 5 µg | 50 µg | > 1020 µg/mL | –
CCCCCCCCN1CCN(CCCCCCN2CCN(C(C)C(=Cc3ccccc3)Cc3ccccc3)CC2)CC1 (stereo not shown) [LXII, 1-phenyl-2-benzyl-3-[4'-w-(4"-n-octyl-piperazino-1")-n-hexyl-piperazino-1']-butene-1] | 512 µg/mL | 5 µg | 1020 µg/mL | 2 µg/mL (≈ 3.41 µM) | < 0.5 µg/mL | 50 µg | 25 mg/mL (≈ 42600 µM) | 16 µg/mL (≈ 27.3 µM) | 5 µg | 50 µg | 1020 µg/mL (≈ 1740 µM) | –
CC(N1CCN(C)CC1)C(O)(Cc1ccc(Cl)cc1)Cc1ccc(Cl)cc1 (stereo not shown) [XLVIII, 1-p-chlorophenyl-2-p-chlorobenzyl-3-(4'-methyl-piperazino-1')-butanol-2] | 256 µg/mL | 50 µg | > 1020 µg/mL | 8 µg/mL (≈ 19.6 µM) | 4 µg/mL (≈ 9.82 µM) | 50 µg | 50 mg/mL (≈ 123000 µM) | 128 µg/mL (≈ 314 µM) | 50 µg | 50 µg | > 1020 µg/mL | –
CC(C(=Cc1ccc(Cl)cc1)Cc1ccc(Cl)cc1)N1CCN(CCN2CCN(C)CC2)CC1 (stereo not drawn) [XLII, 1-p-chloro-phenyl-2-p-chloro-benzyl-3-{4'-[β-(4"-methyl-piperazino-1")-ethyl]-piperazino-1'}-butene-1] | 32 µg/mL | 5 µg | 256 µg/mL | < 0.5 µg/mL | < 0.5 µg/mL | 5 µg | 100 mg/mL (≈ 199000 µM) | 32 µg/mL (≈ 63.8 µM) | 5 µg | 5 µg | 32 µg/mL (≈ 63.8 µM) | 1020 µg/mL
CCCCCCCCNCCCCCCN1CCN(C(C)C(=Cc2ccccc2)Cc2ccccc2)CC1 (stereo not shown) [XL, 1-phenyl-2-benzyl-3-[4'-(w-n-octyl-amino-n-hexyl)piperazino-1']-butene-1] | 2 µg/mL | 5 µg | 64 µg/mL | < 0.5 µg/mL | < 0.5 µg/mL | 5 µg | 10 mg/mL (≈ 19300 µM) | < 0.5 µg/mL | 5 µg | 5 µg | 32 µg/mL (≈ 61.8 µM) | 1020 µg/mL
CNCCCCCCN1CCN(C(C)C(=Cc2ccccc2)Cc2ccccc2)CC1 (stereo not shown) [XLI, 1-phenyl-2-benzyl-3-[4'-(w-methyl-amino-n-hexyl)piperazino-1']-butene-1] | 8 µg/mL | 5 µg | 128 µg/mL | 2 µg/mL (≈ 4.77 µM) | 1 µg/mL (≈ 2.38 µM) | 5 µg | 100 mg/mL (≈ 238000 µM) | 32 µg/mL (≈ 76.3 µM) | 50 µg | 50 µg | 32 µg/mL (≈ 76.3 µM) | 512 µg/mL
CC(N1CCN(CCO)CC1)C(O)(Cc1ccc(Cl)cc1)Cc1ccc(Cl)cc1 (stereo not drawn) [XLVII, 1-(p-Chloro-phenyl)-2-(p-chloro-benzyl)-3-[4'-(β-hydroxyethyl)-piperazino-1']-butanol-2] | 64 µg/mL | 5 µg | 256 µg/mL | 32 µg/mL (≈ 73.2 µM) | 32 µg/mL (≈ 73.2 µM) | 5 µg | 100 mg/mL (≈ 229000 µM) | 4 µg/mL (≈ 9.14 µM) | 5 µg | 500 µg | – | > 1020 µg/mL
CC(C(=Cc1ccccc1)Cc1ccccc1)N1CCN(CCN(C)C)CC1 (stereo not drawn) [XXVI, 1-phenyl-2-benzyl-3-[4'-(β-dimethylamino-ethyl)-piperazino-1']-butene-1] | 32 µg/mL | 5 µg | 16 µg/mL | 8 µg/mL (≈ 21.2 µM) | 4 µg/mL (≈ 10.6 µM) | 5 µg | 100 mg/mL (≈ 265000 µM) | 128 µg/mL (≈ 339 µM) | 50 µg | 50 µg | 128 µg/mL (≈ 339 µM) | –
